This note sets out measurements from EP2157088A1, “INDICYANINE DYES AND THE DERIVATIVES THEREOF FOR ANALYSING BIOLOGICAL MICROMOLECULES” (UCHREZHDENIE ROSSIISKOI AKADEMII NAUK INSTITUT …, priority 2007, dated 2008).

Common to all, as to assay type: physicochemical
Data set [1] can be described thus: Quantum efficiency of fluorescence, measured versus a reference dye. The procedure:
For all indodicarbocyanine dyes (I) (A1) - (A30) and (B1) - (B7) of the invention, there are determined the quantum efficiency of fluorescence in methanol and in aqueous phosphate buffered saline (Table 1, Fig. 3). The measurements are performed versus dyes of formula (I) (R1= -CH3, R2= R6= -SO3^-; R3= -(CH2)5COOH, R4= -C2H5, R5= -H) whose quantum efficiency of fluorescence in PBS is 0.27 (Mader O., K. Reider, H.-J. Egelhaaaf, R, Fischer, R. Brock, Structure Properties of Pentamethine Indocyanine Dyes: Identification of New Dyes for Life Science Applications. Bioconjugate Chem, 2004, vol. 15, pp. 70-78). In methanol, dyes (A10, A22, A25, A29, A30) have the upper-range of quantum efficiency of fluorescence (Φ ∼ 0.3), but in PBS, dyes (A10, A22, A25, A29, A30) have the maximal Φ -value.

The nature of data set [2]: Absorption and fluorescence maxima of the dyes. The source says: An insertion of methyl group at 5- and 7-positions of indolenyne cycle produces a bathochromic shift in the absorption and fluorescent spectra. As to the rest sulfur containing dyes, the spectral characteristics thereof appear to be in the same range (between about λmax 648 nm and λem 669 nm) (Fig. 1),

Data set [3] can be described thus: Relative efficiency of fluorescence / absolute sensitivity of label, normalized to dye A30 in PBS. The following applies: for Sensitivity of record 655/ 690: excitation 655 nm, record 690 nm; for Sensitivity of record max/ max: excitation and record in absorption and fluorescence maxima, ε*Φ normalized to A30 in PBS; for Sensitivity of record 635/ 670: excitation 635 nm, record 670 nm. The source says: The data obtained were as follows: • on excitation and record in absorption and fluorescence maxima, the relative efficiency of fluorescence exceeds 0.80 for dyes (A10), (A22), (A23), (A25), and (A30) in methanol and for dyes (A22), (A25), and (A30) in PBS (Table 1, Fig. 4), whereas for dyes of formula (I) (R1 = -CH3, R2= R6= -SO3^-; R3= -(CH2)5COOH, R4= -C2H5; R5= -H) the values are 0.69 in methanol and 0.67 in PBS; • on excitation at wavelength 655 nm and record at 690 nm, the relative efficiency of fluorescence exceeds 0.25 for dyes (A25) and (A30) in methanol and is higher than 0.18 for dyes (A24) and (A30) in PBS (Table 1, Fig. 5), whereas for dyes of formula (I) (R1 = -CH3, R2 = R6= -SO3^-; R3= -(CH2)5COOH, R4= -C2H5; R5= -H) the values are 0.18 in methanol and 0.11 in PBS; • on excitation at wavelength 635 nm and record at 670 nm, the relative efficiency of fluorescence exceeds 0.50 for dyes (A1), (A11), (A23) in methanol and is higher than 0.45 for dyes (A22), (A25), and (A30) in PBS (Table 1, Fig. 6), whereas for dyes of formula (I) (R1= -CH3, R2= R6= -SO3^-; R3= -(CH2)5COOH, R4= -C2H5; R5= -H) the values are 0.44 in methanol and 0.38 in PBS.
Term sensitivity of fluorescent analysis is defined by the absolute sensitivity of label that may be represented as the product of molar extinction coefficient by quantum efficiency of fluorescence (ε*Φ). Thus, there are determined the absolute sensitivity of indodicarbocyanines (A1-A30, B1-B7) in appropriate absorption and fluorescence maxima in methanol and in aqueous phosphate buffered saline. The values are normalized to the maximal value obtained for dye (A30) in PBS (Table 1). In methanol, dyes (A10, A22, A23, A25, A30) have the upper-range of absolute sensitivity, but in PBS, dyes (A10, A22, A25, A29, A30) have the maximal values of sensitivity (Fig. 4).
To determine the most appropriate dyes for instrument setting, there are measured the relative efficiency of fluorescence of dyes at wavelength of excitation and record of the instrument (655 nm. / 690 nm). The maximal values appear to be specific to dyes (A25) and (A30) in methanol, and to dyes (A19, A22, A25, A29, A30) in PBS (Table 1, Fig. 5).
There are also measured the relative efficiency of fluorescence at wavelength of excitation and record of the instrument (635 nm / 670 nm). The maximal values appear to be specific to dyes (A1, A10, A11, A23) in methanol, and to dyes (A10, A22, A25, A29, A30) in PBS (Table 1, Fig. 6).

Data set [4] is described as follows: Molar extinction coefficient in methanol and PBS. Further details: ε·10^-5: unit not given here. The protocol:
For all indodicarbocyanine dyes (I) (A1) - (A30) and (B1) - (B7) of the invention, there are determined the molar extinction coefficients in methanol and in aqueous phosphate buffered saline (PBS) (10 mM potassium phosphate buffer, sodium chloride concentration is 0.9%, pH 7.4). In methanol, indodicarbocyanine (A1, A8, A10-A12, A17, A23) has the upper-range of molar extinction coefficient (ε >[…]). In aqueous phosphate buffered saline (PBS), dyes (A10, A23, A30) have the maximal ε-value (Fig. 2).

The mark [5] stands for this setting: PBS (10 mM potassium phosphate buffer, 0.9% sodium chloride, pH 7.4).

Molecules are shown by their SMILES. Where a name gives a salt, the structure may show the parent alone.

Take `CCN1C(=CC=CC=CC2=[N+](CCCCS(=O)(=O)[O-])c3ccccc3C2(C)CCCCC(=O)O)C(C)(C)c2ccccc21` (centres unmarked) [A1, 3-(4-carboxybutyl)-N-(4-sulfobutyl)-3,3',3'-trimethyl-N'-ethylindodicarbocyanine]: the figures for the “Φ (quantum efficiency of fluorescence)” value in data set [1] (MeOH) and in data set [1] (PBS) were 0.25 and 0.13, respectively. The “λmax^abs” value in data set [2] (MeOH) is 644 nm; in data set [2] (PBS) it was 643 nm. For the same compound, the “λmax^em” value came to 662 nm in data set [2] (MeOH) and 657 nm in data set [2] (PBS). Further, the “Sensitivity of record 655/ 690” value stood at 0.025 in data set [3] (MeOH) and 0.153 in data set [3] (PBS). Besides, the “Sensitivity of record max/ max” value is given as 0.737 in data set [3] (MeOH) and 0.372 in data set [3] (PBS). For the same compound, the “Sensitivity of record 635/ 670” value in data set [3] (PBS) turned out to be 0.123. For the same compound, the figures for the “ε·10^-5” value in data set [4] (MeOH) and in data set [4] (setting [5]) were 2.47±0.02 and 2.06±0.02, respectively.

Consider `CC[N+]1=C(/C=C/C=C/C=C2/N(CCCCS(=O)(=O)[O-])c3ccccc3C2(C)CCCCC(=O)O)C(C)(C)c2cc(C)ccc21` (centres unmarked) [A2, 3-(4-Carboxybutyl)-N-(4-sulfobutyl)-3,3',3',5'-tetramethyl-N'-ethylindodicarbocyanine], for which the “Φ (quantum efficiency of fluorescence)” value amounted to 0.17 in data set [1] (MeOH) and 0.09 in data set [1] (PBS). Also, the “λmax^abs” value in data set [2] (MeOH) amounted to 649 nm; in data set [2] (PBS), 647 nm. Besides, the “λmax^em” value was determined as 667 nm in data set [2] (MeOH) and 662 nm in data set [2] (PBS). Also, the “Sensitivity of record 635/ 670” value in data set [3] (MeOH) amounted to 0.320; in data set [3] (PBS), 0.184. Also, the entries for the “Sensitivity of record 655/ 690” value in data set [3] (MeOH) and in data set [3] (PBS) were 0.149 and 0.068, respectively. Besides, the “Sensitivity of record max/ max” value is given as 0.442 in data set [3] (MeOH) and 0.261 in data set [3] (PBS). Besides, the “ε·10^-5” value was 2.01±0.01 in data set [4] (MeOH) and 1.99±0.03 in data set [4] (setting [5]).

Turning to `CC1(C)C(C=CC=CC=C2N(CCCCS(=O)(=O)O)c3ccccc3C2(C)CCCCC(=O)O)=[N+](CCCCS(=O)(=O)[O-])c2ccccc21` (centres unmarked) [A10, N,N'-di(4-sulfobutyl)-3-(4-carboxybutyl)-3,3',3'-trimethylindodicarbocyanine, sodium salt], the “Φ (quantum efficiency of fluorescence)” value in data set [1] (MeOH) is given as about 0.3; in data set [1] (PBS), “maximal”. Further, the “Sensitivity of record 635/ 670” value in data set [3] (MeOH) and in data set [3] (PBS) was “maximal” throughout. For the same compound, the “Sensitivity of record max/ max” value in data set [3] (PBS) is “maximal”.

In data set [4] (in methanol), `Cc1ccc2c(c1)C(C)(CCCCC(=O)O)C(C=CC=CC=C1N(CCCCS(=O)(=O)[O-])c3ccccc3C1(C)C)=[N+]2CCCCS(=O)(=O)[O-].[Na+]` (centres unmarked) [A17, N,N'-di(4-sulfobutyl)-3-(4-carboxybutyl)-3,3',3',5-tetramethylindodicarbocyanine, sodium salt] showed a molar extinction coefficient (ε) of over 220000 M⁻¹ cm⁻¹.

Turning to `Cc1ccc2c(c1)C(C)(C)C(=CC=CC=CC1=[N+](CCCCS(=O)(=O)[O-])c3ccc(C)cc3C1(C)CCCCC(=O)O)N2CCCCS(=O)(=O)[O-].[Na+]` (centres unmarked) [A19, N,N'-di(4-sulfobutyl)-3-(4-carboxybutyl)-3,3',3',5,5'-pentamethylindodicarbocyanine, sodium salt], in data set [3] (PBS), the “Sensitivity of record 655/ 690” value is recorded as “maximal”.

For `CCN1C(=CC=CC=CC2=[N+](CC)c3ccc(S(=O)(=O)[O-])cc3C2(C)CCCCC(=O)O)C(C)(C)c2cc(S(=O)(=O)[O-])ccc21.[Na+]` (centres unmarked) [A22, 5,5'-disulfo-N,N'-diethyl-3-(4-carboxybutyl)-3,3',3'-trimethylindodicarbocyanine, sodium salt], the “Φ (quantum efficiency of fluorescence)” value in data set [1] (MeOH) is recorded as about 0.3; in data set [1] (PBS), “maximal”. In addition, the “Sensitivity of record 655/ 690” value in data set [3] (PBS) is “maximal”.

Regarding `CC1(C)C(/C=C/C=C/C=C2/N(CCCCS(=O)(=O)O)c3ccccc3C2(C)CCCCC(=O)O)=[N+](CCCCS(=O)(=O)O)c2ccc(S(=O)(=O)[O-])cc21` (centres unmarked) [A23, N,N'-di(4-sulfobutyl)-3-(4-carboxybutyl)-5'-sulfo-3,3',3'-trimethylindodicarbocyanine, disodium salt], the “molar extinction coefficient (ε)” value in data set [4] (in aqueous phosphate buffered saline (PBS)) was “maximal”.

For `CC1(C)C(=CC=CC=CC2=[N+](CCCCS(=O)(=O)[O-])c3ccc(S(=O)(=O)[O-])cc3C2(C)CCCCC(=O)O)N(CCCCS(=O)(=O)[O-])c2ccccc21.[Na+].[Na+]` (centres unmarked) [A24, N,N'-di(4-sulfobutyl)-3-(4-carboxybutyl)-5-sulfo-3,3',3'-trimethylindodicarbocyanine, disodium salt], the “Sensitivity of record 655/ 690” value in data set [3] (PBS) was “higher than 0.18”.

On to `CC[N+]1=C(/C=C/C=C/C=C2/N(CCCCS(=O)(=O)O)c3ccc(S(=O)(=O)[O-])cc3C2(C)CCCCC(=O)O)C(C)(C)c2cc(S(=O)(=O)O)ccc21` (centres unmarked) [A25, 5,5'-disulfo-3-(4-carboxybutyl)-N-(4-sulfobutyl)-3,3',3'-trimethyl-N'-ethylindodicarbocyanine, disodium salt], for which, in data set [3] (PBS), the “Sensitivity of record 655/ 690” value was “maximal”.

For `CCN1/C(=C/C=C/C=C/C2=[N+](CCCCS(=O)(=O)O)c3ccc(S(=O)(=O)O)cc3C2(C)C)C(C)(CCCCC(=O)O)c2cc(S(=O)(=O)[O-])ccc21` (centres unmarked) [A29, 5,5'-disulfo-3-(4-carboxybutyl)-N'-(4-sulfobutyl)-3,3';3'-trimethyl-N-ethylindodicarbocyanine, disodium salt], the “Φ (quantum efficiency of fluorescence)” value in data set [1] (PBS) is given as “maximal”. Besides, in data set [3] (PBS), the “Sensitivity of record 635/ 670” value was “maximal”, the “Sensitivity of record 655/ 690” value is “maximal” and the “Sensitivity of record max/ max” value was “maximal”.

Take `Cc1ccc2c(c1)C(C)(C)C(=CC=CC=CC1=[N+](CCCCS(=O)(=O)[O-])c3ccc(CCC(=O)O)cc3C1(C)C)N2CCCCS(=O)(=O)[O-].[Na+]` [B4, N,N'-disulfobutyl-5-carboxyethyl-3,3,3',3',5'-pentamethylindodicarbocyanine, sodium salt]: the “Φ (quantum efficiency of fluorescence)” value in data set [1] (MeOH) is reported as 0.19.

As for `CC1(C)C(=CC=CC=CC2=[N+](CCCCS(=O)(=O)[O-])c3ccc(CCC(=O)O)cc3C2(C)C)N(CCCCS(=O)(=O)[O-])c2ccccc21.[Na+]` [B5, N,N'-disulfobutyl-5-carboxyethyl-3,3,3',3'-tetramethylindodicarbocyanine, sodium salt], in data set [1] (MeOH), the “Φ (quantum efficiency of fluorescence)” value is on record as 0.17. In data set [4] (solvent not stated), the molar extinction coefficient result is given as “about 200,000”.
